Entries after “also recorded” stand apart in the source; their conditions may differ.
Legend:
[1] = test system: human PBMCs; experiment: RNA-seq of HMGB1-stimulated PBMCs; type: cell-based; settings: for other HMGB1-induced gene expression (cytokines, chemokines) (words): P2–1 5.0 or 10.0 μg/ml with HMGB1
Procedure: (§1) Human blood was purchased from the New York Blood Center (Long Island City, NY, USA), and PBMCs were isolated by density gradient centrifugation through Ficoll (Ficoll-Paque PLUS) as previously described,[30]. PBMCs were cultured in RPMI-1640 supplemented with 10% human serum, 2 mM L-glutamine, 100 U/mL penicillin, and 100 μg/mL streptomycin (all from Invitrogen). For experiments, PBMCs were stimulated with recombinant human HMGB1 (0.5 or 2.0 μg/ml) for 16 hours, either alone or in combination with P2–1 at 5.0 or 10.0 μg/ml. Cell-free supernatants were collected for analysis of cytokines/chemokines levels by Cytokine Antibody Arrays, or pCTS-L levels by Western blotting analysis as described.
Total RNA was isolated from human PBMCs stimulated with HMGB1 in the absence or presence of P2–1 (5.0 or 10.0 μg/ml) using the RNeasy Mini Kit (Qiagen) according to the manufacturer’s instructions. RNA quantity and quality were assessed using a NanoDrop spectrophotometer and an Agilent Bioanalyzer. cDNA libraries were prepared using the TruSeq RNA Library Prep Kit v2 (Illumina) and sequenced on an Illumina NovaSeq 6000 platform to generate 100 bp paired-end reads. Raw sequencing reads were quality-checked using FastQC, trimmed with Trimmomatic, and aligned to the human reference genome (GRCh38) using HISAT2. Gene counts were quantified using StringTie and DESeq2 was used for differential gene expression analysis. Volcano plots and heatmaps were generated using ggplot2 and pheatmap packages in R, respectively. Genes with an adjusted P-value < 0.05 and a |log2-fold change| > 1 were considered differentially expressed.

[2] = test system: sepsis-induced systemic cytokines and chemokines; experiment: serum cytokines/chemokines in CLP sepsis, Cytokine Antibody Arrays; type: in vivo, Balb/C mice; settings: P2–1 0.1 or 1.0 mg/kg i.p. at 2 h and 20 h post-CLP; blood at 24 h
Procedure: (§2) Experimental sepsis was induced in Balb/C mice via cecal ligation and puncture (CLP) as previously described,[30],[37]. […] Briefly, mice were anesthetized intramuscularly with ketamine (75 mg/kg, Henry Schein Animal Health, Dublin, Ohio) and xylazine (10 mg/kg, Sigma-Aldrich) before a midline abdominal incision was made in the lower left abdomen. The cecum was ligated with a 4–0 silk suture at 50% of its length from the distal end, and punctured twice with a 21-gauge needle to induce moderate to severe sepsis. The cecum was returned to the abdominal cavity, and the incision was closed in layers. Approximately 30 min post-CLP, animals received imipenem/cilastatin (0.5 mg/mouse, Primaxin, Merck & Co., Inc.) and 1.0 mL of sterile saline for fluid resuscitation. Animals were randomized to control vehicle and experimental groups, administered P2 or P2–1 intraperitoneally at indicated doses and time points, and monitored for survival rates. To elucidate P2–1’s protective mechanisms, a separate group of Balb/C mice underwent CLP and received P2–1 (1.0 mg/kg) at 2 h and 20 h post-CLP. At 24 h post-CLP, animals were euthanized to collect blood and measure serum cytokines and chemokines using murine Cytokine Antibody Arrays.
(§3) Levels of cytokines and chemokines in mouse serum and joint tissue lysates, or human PBMC culture supernatants were determined using murine or human Cytokine Antibody Arrays (e.g., Cat. No. M0308003 or Cat. No. AAH-CYT-3–4, RayBiotech Inc., Norcross, GA, USA) as previously described,[30],[86],[87]. Serum samples were collected from mice at 24 h post-CLP. The soft tissue of the hindpaw and ankle joints was carefully collected using a previously described protocol. Briefly, 0.5 g of fresh soft tissue was cut into 3 mm pieces, and mixed with 400 μL of a hypertonic solution (500 mL PBS with 4.5 g NaCl and 2× protease inhibitor cocktail) in a 10 mL syringe. Mechanical extrusion, involving 30 rapid back-and-forth movements of the plunger, was then performed. The expelled extracellular fluid was collected, immediately aliquoted, and stored at −20°C until analysis. Cell-conditioned medium was collected from PBMC cultures after 16 h of stimulation. Arrays were performed according to the manufacturer’s protocol, followed by chemiluminescent detection and densitometric quantification as previously described,[30].

[3] = test system: CLP-induced sepsis; experiment: CLP sepsis survival; type: in vivo, Balb/C mice
Procedure: as §2
All data were first assessed for normality using the Shapiro-Wilk test before applying the appropriate statistical analyses. All data are presented as mean ± standard error of the mean (SEM) unless otherwise specified. For comparison among multiple groups with non-normal (skewed) distribution, the Kruskal-Wallis ANOVA test followed by Dunn’s post-hoc test was used to evaluate statistical differences. Survival curves were analyzed using Kaplan-Meier method and compared using the nonparametric log-rank (Mantel-Cox) test. Statistical significance was defined as a P value less than 0.05.

[4] = water solubility; type: physicochemical
[5] = test system: CAIA-induced joint tissue cytokines and chemokines; experiment: CAIA joint tissue inflammation, Cytokine Antibody Arrays; type: in vivo, Balb/C mice; settings: P2–1, harvested Day 10; for joint tissue inflammation (array overall): representative arrays, four vehicle- and four P2-1-treated mice
Procedure: The CAIA model was performed in Balb/C mice (8–10 weeks old) as described previously. On Day 0, mice received i.p. injection of 2 mg anti-collagen II mAb cocktail (α-II, Chondrex, Inc., Redmond, WA). On Day 3, mice received i.p. injection of 30 μg LPS (Escherichia coli O111:B4; Sigma-Aldrich) to activate inflammation and synchronize arthritis onset. Mice were randomized, and therapeutic agents (P2–1 peptide or pCTS-L-neutralizing mAb2) were administered i.p. daily from Day 6 to Day 9. Arthritis severity was scored daily using a clinical scoring system [0 – 4 per paw: 0 = normal; 1 = mild redness and swelling in a single joint type (ankle, wrist, or individual digits); 2 = moderate redness and swelling affecting two joint types; 3 = severe redness and swelling involving across all three joint types; 4 = maximal redness and swelling of the entire paw that obscured joint definition].
as §3

[6] = test system: human PBMCs; experiment: HMGB1-induced cytokine/chemokine secretion, Cytokine Antibody Arrays; type: cell-based; settings: P2–1 5 or 10 μg/ml, HMGB1 0.5 or 2.0 μg/ml, 16 h
Procedure: as §1, §3

Q: For “54-TKVH(Nle)KSFLAFQTKT-69 [P2–1, water-soluble derivative of TN peptide P2 with Met to Norleucine and Cys to Ser substitutions]”, which “Ctsl mRNA upregulation (fold)” value ([1]; HMGB1 + P2–1 group, three independent donors, mean ± SEM) is on record?
A: The value was 2.4 ± 0.1 fold.

Q: What about the “HMGB1-induced Ctsl mRNA upregulation” value ([1]; P2–1 5.0 or 10.0 μg/ml) of the same substance?
A: Its value is “moderately but significantly reduced HMGB1-induced Ctsl mRNA upregulation”.

Q: And the “other HMGB1-induced gene expression (cytokines, chemokines) (words)” value [1]?
A: Its value is “did not broadly reverse HMGB1-induced transcriptional changes for most genes; also recorded: not significantly affecting the expression of other HMGB1-induced cytokines and chemokines”.

Q: What about the “other HMGB1-induced gene expression (cytokines, chemokines) (words)” value ([1]; listed as P2-1) of the same substance?
A: The value was “does not induce”.

Q: What about the sepsis-induced systemic inflammation [2] of the same substance?
A: Its sepsis-induced systemic inflammation is “significantly attenuated”.

Q: And the “serum BLC/CXCL13” value [2]?
A: Its value is “significantly reduced”.

Q: And the “serum G-CSF” value [2]?
A: Its value is “significantly reduced”.

Q: And the “serum IL-6” value [2]?
A: Its value is “significantly reduced”.

Q: What about the “serum KC/GRO-α/CXCL1” value [2] of the same substance?
A: Its value is “significantly reduced”.

Q: What about the “serum MCP-1/CCL2” value [2] of the same substance?
A: The value was “significantly reduced”.

Q: And the “serum MIP-1γ/CCL9/10” value [2]?
A: The value was “significantly reduced”.

Q: And the “serum MIP-2/GRO-β/CXCL3” value [2]?
A: Its value is “significantly reduced”.

Q: And the “serum sTNFRI” value [2]?
A: The value was “significantly reduced”.

Q: And the “animal survival (# of Survivors)” value ([3]; Fig. 2C, P2–1 0.1 mg/kg, delayed administration (24 h and 48 h post-CLP), no asterisk)?
A: Its value is 60%.

Q: What about the “survival” value ([3]; P2–1 0.1 mg/kg at 2 h, 20 h, 28 h, 44 h, and 52 h post-CLP, 0.1 mg/kg) of the same substance?
A: Its value is “conferred significant protection against lethal sepsis”.

Q: And the “animal survival (# of Survivors)” value ([3]; P2–1 0.1 mg/kg i.p. at 2 h, 20 h, 28 h, 44 h, and 52 h post-CLP, P < 0.05 vs. control)?
A: Its value is 70%.

Q: What about the “survival” value ([3]; P2–1 1.0 mg/kg, delayed, 24 h and 48 h post-CLP, 1 mg/kg) of the same substance?
A: The value was “provided potent protection against lethal sepsis; also recorded: rescued mice from lethal sepsis”.

Q: What about the “animal survival (# of Survivors)” value ([3]; delayed, P2–1 1.0 mg/kg i.p. at 24 h and 48 h post-CLP, P < 0.05 vs. vehicle) of the same substance?
A: Its value is 90%.

Q: And the water solubility [4]?
A: Its water solubility is “good water solubility”.

Q: What about the “joint tissue MIP-1γ/CCL9/10” value [5] of the same substance?
A: The value was “reduced levels; also recorded: significant reduction”.

Q: What about the “joint tissue VCAM-1” value [5] of the same substance?
A: The value was “reduced levels; also recorded: significant reduction”.

Q: And the “joint tissue sTNFRI” value [5]?
A: Its value is “reduced levels; also recorded: significant reduction”.

Q: What about the “joint tissue sTNFRII” value [5] of the same substance?
A: The value was “reduced levels; also recorded: significant reduction”.

Q: And the “joint tissue inflammation (array overall)” value [5]?
A: The value was “significantly reduced CAIA-induced joint tissue inflammation”.

Q: And the “joint tissue inflammation (array overall)” value ([5]; listed as P2-1)?
A: Its value is “reduction in various inflammatory cytokines and chemokines”.

Q: And the “HMGB1-induced cytokine/chemokine secretion (words)” value [6]?
A: The value was “did not affect the secretion of these HMGB1-induced cytokines and chemokines; also recorded: did not broadly inhibit the secretion of these HMGB1-induced cytokines and chemokines”.

Q: What about the “HMGB1-induced cytokine/chemokine secretion (words)” value ([6]; listed as P2-1) of the same substance?
A: The value was “does not broadly inhibit”.
